{
  "source": "patent US20250231185A1",
  "about": "“Coronavirus T Cell Epitopes, Megapools and Uses Thereof” (La Jolla Institute for Immunology, priority 2021, published 2025)",
  "origin": "cited, not measured here",
  "data": [
    {"tested_on": "CD8+ T cells", "settings": "CD8R (D) megapool epitopes; dominant = recognized by 3 or more donors/different studies; cited from earlier work", "values": [
      {"substance": "1770 (YIFFASFYY) [compound 1770]", "Dominant": "Yes (more dominant epitopes are defined by being recognized by 3 or more donors/different studies)"},
      {"substance": "1773 (FLPRVFSAV) [compound 1773]", "Dominant": "Yes (more dominant epitopes are defined by being recognized by 3 or more donors/different studies)"},
      {"substance": "1666 (SLVKPSFYV) [compound 1666]", "Dominant": "Yes (more dominant epitopes are defined by being recognized by 3 or more donors/different studies)"},
      {"substance": "1723 (MVMCGGSLYV) [compound 1723]", "Dominant": "Yes (more dominant epitopes are defined by being recognized by 3 or more donors/different studies)"},
      {"substance": "1688 (LSPRWYFYYL) [compound 1688]", "Dominant": "Yes (more dominant epitopes are defined by being recognized by 3 or more donors/different studies)"},
      {"substance": "1737 (SSNVANYQK) [compound 1737]", "Dominant": "Yes (more dominant epitopes are defined by being recognized by 3 or more donors/different studies)"},
      {"substance": "1667 (YVYSRVKNL) [compound 1667]", "Dominant": "Yes (more dominant epitopes are defined by being recognized by 3 or more donors/different studies)"},
      {"substance": "1779 (VRIQPGQTF) [compound 1779]", "Dominant": "Yes (more dominant epitopes are defined by being recognized by 3 or more donors/different studies)"},
      {"substance": "1680 (RYRIGNYKL) [compound 1680]", "Dominant": "Yes (more dominant epitopes are defined by being recognized by 3 or more donors/different studies)"},
      {"substance": "1720 (RQLLFVVEV) [compound 1720]", "Dominant": "Yes (more dominant epitopes are defined by being recognized by 3 or more donors/different studies)"},
      {"substance": "1787 (KLKDCVMYA) [compound 1787]", "Dominant": "Yes (more dominant epitopes are defined by being recognized by 3 or more donors/different studies)"},
      {"substance": "1743 (AIMTRCLAV) [compound 1743]", "Dominant": "Yes (more dominant epitopes are defined by being recognized by 3 or more donors/different studies)"},
      {"substance": "1808 (FTSDYYQLY) [compound 1808]", "Dominant": "Yes (more dominant epitopes are defined by being recognized by 3 or more donors/different studies)"},
      {"substance": "1710 (FSKQLQQSM) [compound 1710]", "Dominant": "Yes (more dominant epitopes are defined by being recognized by 3 or more donors/different studies)"},
      {"substance": "1726 (RILGAGCFV) [compound 1726]", "Dominant": "Yes (more dominant epitopes are defined by being recognized by 3 or more donors/different studies)"},
      {"substance": "1802 (IPIQASLPF) [compound 1802]", "Dominant": "Yes (more dominant epitopes are defined by being recognized by 3 or more donors/different studies)"},
      {"substance": "1783 (FLNRFTTTL) [compound 1783]", "Dominant": "Yes (more dominant epitopes are defined by being recognized by 3 or more donors/different studies)"},
      {"substance": "1767 (NYMPYFFTL) [compound 1767]", "Dominant": "Yes (more dominant epitopes are defined by being recognized by 3 or more donors/different studies)"},
      {"substance": "1784 (SAFAMMFVK) [compound 1784]", "Dominant": "Yes (more dominant epitopes are defined by being recognized by 3 or more donors/different studies)"},
      {"substance": "1724 (DTDFVNEFY) [compound 1724]", "Dominant": "Yes (more dominant epitopes are defined by being recognized by 3 or more donors/different studies)"}
    ]},
    {"tested_on": "CD8+ T cells", "settings": "CD8RE megapool peptides (non-spike SARS-CoV-2 antigens); dominant epitope Yes/No; cited from earlier work", "values": [
      {"substance": "2994 (KLVNKFLAL) [compound 2994]", "Dominant": "Yes (more dominant epitopes are defined by being recognized by 3 or more donors/different studies)"},
      {"substance": "3004 (ILFTRFFYV) [compound 3004]", "Dominant": "Yes (more dominant epitopes are defined by being recognized by 3 or more donors/different studies)"},
      {"substance": "2984 (KQFDTYNLW) [compound 2984]", "Dominant": "Yes (more dominant epitopes are defined by being recognized by 3 or more donors/different studies)"},
      {"substance": "3016 (GTDLEGNFY) [compound 3016]", "Dominant": "Yes (more dominant epitopes are defined by being recognized by 3 or more donors/different studies)"},
      {"substance": "2915 (RYRIGNYKL) [compound 2915]", "Dominant": "Yes (more dominant epitopes are defined by being recognized by 3 or more donors/different studies)"},
      {"substance": "2930 (LLLLDRLNQL) [compound 2930]", "Dominant": "Yes (more dominant epitopes are defined by being recognized by 3 or more donors/different studies)"},
      {"substance": "2948 (DLKGKYVQI) [compound 2948]", "Dominant": "Yes (more dominant epitopes are defined by being recognized by 3 or more donors/different studies)"},
      {"substance": "2968 (VVYRGTTTY) [compound 2968]", "Dominant": "Yes (more dominant epitopes are defined by being recognized by 3 or more donors/different studies)"},
      {"substance": "2907 (TLACFVLAAV) [compound 2907]", "Dominant": "Yes (more dominant epitopes are defined by being recognized by 3 or more donors/different studies)"},
      {"substance": "2926 (ATEGALNTPK) [compound 2926]", "Dominant": "Yes (more dominant epitopes are defined by being recognized by 3 or more donors/different studies)"},
      {"substance": "3036 (FVRATATIPI) [compound 3036]", "Dominant": "Yes (more dominant epitopes are defined by being recognized by 3 or more donors/different studies)"},
      {"substance": "2917 (NTASWFTAL) [compound 2917]", "Dominant": "Yes (more dominant epitopes are defined by being recognized by 3 or more donors/different studies)"},
      {"substance": "2976 (VLWAHGFEL) [compound 2976]", "Dominant": "Yes (more dominant epitopes are defined by being recognized by 3 or more donors/different studies)"},
      {"substance": "2988 (MLWCKDGHV) [compound 2988]", "Dominant": "Yes (more dominant epitopes are defined by being recognized by 3 or more donors/different studies)"}
    ]},
    {"tested_on": "CD8+ T cells", "settings": "Habel et al., 14 peptides screened; HLA-A*02:01; cited from earlier work", "values": [
      {"substance": "VLNDILSRL [SEQ ID NO: 1508]", "IFN-f response": "less prominently recognized"}
    ]},
    {"tested_on": "CD8+ T cells", "settings": "SARS-CoV-2-derived CD8 epitopes; dominant = recognized by 3 or more donors/different studies; cited from earlier work", "values": [
      {"substance": "628 (PTDNYITTY) [compound 628]", "Dominant": "Yes (more dominant epitopes are defined by being recognized by 3 or more donors/different studies)"},
      {"substance": "521 (QQQQGQTVTK) [compound 521]", "Dominant": "Yes (more dominant epitopes are defined by being recognized by 3 or more donors/different studies)"},
      {"substance": "632 (QEILGTVSW) [compound 632]", "Dominant": "Yes (more dominant epitopes are defined by being recognized by 3 or more donors/different studies)"},
      {"substance": "541 (MEVTPSGTW) [compound 541]", "Dominant": "Yes (more dominant epitopes are defined by being recognized by 3 or more donors/different studies)"}
    ]},
    {"tested_on": "CD8+ T cells", "settings": "SARS-CoV-2 Ag S; T cell type recognizing the epitope; cited from earlier work", "values": [
      {"substance": "1383 (GLTVLPPLL) [compound 1383]", "Restriction": "CD8"},
      {"substance": "1358 (IAIPTNFTI) [compound 1358]", "Restriction": "CD8"},
      {"substance": "1311 (FERDISTEI) [compound 1311]", "Restriction": "CD8"},
      {"substance": "1336 (IHADQLTPTW) [compound 1336]", "Restriction": "CD8"},
      {"substance": "1397 (YENQKLIANQF) [compound 1397]", "Restriction": "CD8"},
      {"substance": "1381 (LADAGFIKQY) [compound 1381]", "Restriction": "CD8"},
      {"substance": "1459 (YEQYIKWPW) [compound 1459]", "Restriction": "CD8"},
      {"substance": "1308 (KPFERDISTEI) [compound 1308]", "Restriction": "CD8"},
      {"substance": "1468 (VLKGVKLHY) [compound 1468]", "Restriction": "CD8"},
      {"substance": "1444 (WFVTQRNFY) [compound 1444]", "Restriction": "CD8"},
      {"substance": "1430 (GVVFLHVTY) [compound 1430]", "Restriction": "CD8"}
    ]},
    {"tested_on": "CD8+ T cells", "settings": "T cell subset (CD4 or CD8) recognizing the SARS-CoV-2-derived epitope; cited from earlier work", "values": [
      {"substance": "690 (NYYKKDNSY) [compound 690]", "Restriction": "CD8"},
      {"substance": "668 (WKYPQVNGL) [compound 668]", "Restriction": "CD8"},
      {"substance": "628 (PTDNYITTY) [compound 628]", "Restriction": "CD8"},
      {"substance": "563 (HVGEIPVAY) [compound 563]", "Restriction": "CD8"},
      {"substance": "612 (LLSAGIFGA) [compound 612]", "Restriction": "CD8"},
      {"substance": "610 (YIATNGPLK) [compound 610]", "Restriction": "CD8"},
      {"substance": "561 (VMVELVAEL) [compound 561]", "Restriction": "CD8"},
      {"substance": "650 (NLKTLLSL) [compound 650]", "Restriction": "CD8"},
      {"substance": "686 (YTTTIKPVTY) [compound 686]", "Restriction": "CD8"},
      {"substance": "679 (FTCASEYTGNY) [compound 679]", "Restriction": "CD8"},
      {"substance": "626 (ALRKVPTDNY) [compound 626]", "Restriction": "CD8"},
      {"substance": "585 (DTVIEVQGYK) [compound 585]", "Restriction": "CD8"},
      {"substance": "606 (YLKLTDNVY) [compound 606]", "Restriction": "CD8"},
      {"substance": "609 (VVVNAANVY) [compound 609]", "Restriction": "CD8"},
      {"substance": "521 (QQQQGQTVTK) [compound 521]", "Restriction": "CD8"},
      {"substance": "665 (MSALNHTKK) [compound 665]", "Restriction": "CD8"},
      {"substance": "632 (QEILGTVSW) [compound 632]", "Restriction": "CD8"},
      {"substance": "638 (VVDYGARFY) [compound 638]", "Restriction": "CD8"},
      {"substance": "541 (MEVTPSGTW) [compound 541]", "Restriction": "CD8"}
    ]},
    {"tested_on": "CD8+ T cells", "settings": "T cell type (CD4 or CD8) recognizing the SARS-CoV-2 epitope; cited from earlier work", "values": [
      {"substance": "1063 (SLYVNKHAF) [compound 1063]", "Restriction": "CD8"},
      {"substance": "969 (ARLYYDSMSY) [compound 969]", "Restriction": "CD8"},
      {"substance": "1068 (YNLWNTFTRL) [compound 1068]", "Restriction": "CD8"},
      {"substance": "983 (NMLRIMASL) [compound 983]", "Restriction": "CD8"},
      {"substance": "1099 (NPIQLSSYSL) [compound 1099]", "Restriction": "CD8"},
      {"substance": "916 (YLYFIKGLNNL) [compound 916]", "Restriction": "CD8"},
      {"substance": "1005 (YLPYPDPSRI) [compound 1005]", "Restriction": "CD8"},
      {"substance": "947 (FPPTSFGPL) [compound 947]", "Restriction": "CD8"},
      {"substance": "1035 (FAIGLALYY) [compound 1035]", "Restriction": "CD8"},
      {"substance": "926 (KVAGFAKFLK) [compound 926]", "Restriction": "CD8"},
      {"substance": "994 (FVNEFYAYL) [compound 994]", "Restriction": "CD8"},
      {"substance": "959 (AAISDYDYY) [compound 959]", "Restriction": "CD8"},
      {"substance": "1044 (AVASKILGL) [compound 1044]", "Restriction": "CD8"},
      {"substance": "942 (KPYIKWDLL) [compound 942]", "Restriction": "CD8"},
      {"substance": "1043 (RPQIGVVREF) [compound 1043]", "Restriction": "CD8"},
      {"substance": "957 (FAVSKGFFK) [compound 957]", "Restriction": "CD8"},
      {"substance": "967 (KSAGFPFNKW) [compound 967]", "Restriction": "CD8"},
      {"substance": "907 (SEISMDNSPNL) [compound 907]", "Restriction": "CD8"},
      {"substance": "991 (VRNLQHRLY) [compound 991]", "Restriction": "CD8"},
      {"substance": "982 (MPNMLRIMASL) [compound 982]", "Restriction": "CD8"},
      {"substance": "968 (KSAGFPFNK) [compound 968]", "Restriction": "CD8"},
      {"substance": "1066 (AGFSLWVYK) [compound 1066]", "Restriction": "CD8"}
    ]}
  ]
}
